Data reported in patent publication US8614327B2 (Vertex Pharmaceuticals Incorporated, priority 2004, dated 2013).

Target: T1, ΔF508-CFTR (Homo sapiens, UniProt P13569, DEL508-508)
T1 construct: expressed in transfected cells
Experiment: Membrane potential optical (FRET/VIPR) assay, identification of potentiator compounds
Assay type: cell-based
Details: Table 3, assay not given; for % Activity: relative efficacy
How it was run: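 NIH3T3 mouse fibroblasts stably expressing ΔF508-CFTR, temperature-corrected 24 h at 27° C., read on VIPR by FRET between CC2-DMPE and DiSBAC2(3). Potentiators identified in a double-addition format, first adding chloride-free (gluconate) medium with or without compound.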

T1 sequence (P13569 with tags, fused parts or gaps DEL508-508): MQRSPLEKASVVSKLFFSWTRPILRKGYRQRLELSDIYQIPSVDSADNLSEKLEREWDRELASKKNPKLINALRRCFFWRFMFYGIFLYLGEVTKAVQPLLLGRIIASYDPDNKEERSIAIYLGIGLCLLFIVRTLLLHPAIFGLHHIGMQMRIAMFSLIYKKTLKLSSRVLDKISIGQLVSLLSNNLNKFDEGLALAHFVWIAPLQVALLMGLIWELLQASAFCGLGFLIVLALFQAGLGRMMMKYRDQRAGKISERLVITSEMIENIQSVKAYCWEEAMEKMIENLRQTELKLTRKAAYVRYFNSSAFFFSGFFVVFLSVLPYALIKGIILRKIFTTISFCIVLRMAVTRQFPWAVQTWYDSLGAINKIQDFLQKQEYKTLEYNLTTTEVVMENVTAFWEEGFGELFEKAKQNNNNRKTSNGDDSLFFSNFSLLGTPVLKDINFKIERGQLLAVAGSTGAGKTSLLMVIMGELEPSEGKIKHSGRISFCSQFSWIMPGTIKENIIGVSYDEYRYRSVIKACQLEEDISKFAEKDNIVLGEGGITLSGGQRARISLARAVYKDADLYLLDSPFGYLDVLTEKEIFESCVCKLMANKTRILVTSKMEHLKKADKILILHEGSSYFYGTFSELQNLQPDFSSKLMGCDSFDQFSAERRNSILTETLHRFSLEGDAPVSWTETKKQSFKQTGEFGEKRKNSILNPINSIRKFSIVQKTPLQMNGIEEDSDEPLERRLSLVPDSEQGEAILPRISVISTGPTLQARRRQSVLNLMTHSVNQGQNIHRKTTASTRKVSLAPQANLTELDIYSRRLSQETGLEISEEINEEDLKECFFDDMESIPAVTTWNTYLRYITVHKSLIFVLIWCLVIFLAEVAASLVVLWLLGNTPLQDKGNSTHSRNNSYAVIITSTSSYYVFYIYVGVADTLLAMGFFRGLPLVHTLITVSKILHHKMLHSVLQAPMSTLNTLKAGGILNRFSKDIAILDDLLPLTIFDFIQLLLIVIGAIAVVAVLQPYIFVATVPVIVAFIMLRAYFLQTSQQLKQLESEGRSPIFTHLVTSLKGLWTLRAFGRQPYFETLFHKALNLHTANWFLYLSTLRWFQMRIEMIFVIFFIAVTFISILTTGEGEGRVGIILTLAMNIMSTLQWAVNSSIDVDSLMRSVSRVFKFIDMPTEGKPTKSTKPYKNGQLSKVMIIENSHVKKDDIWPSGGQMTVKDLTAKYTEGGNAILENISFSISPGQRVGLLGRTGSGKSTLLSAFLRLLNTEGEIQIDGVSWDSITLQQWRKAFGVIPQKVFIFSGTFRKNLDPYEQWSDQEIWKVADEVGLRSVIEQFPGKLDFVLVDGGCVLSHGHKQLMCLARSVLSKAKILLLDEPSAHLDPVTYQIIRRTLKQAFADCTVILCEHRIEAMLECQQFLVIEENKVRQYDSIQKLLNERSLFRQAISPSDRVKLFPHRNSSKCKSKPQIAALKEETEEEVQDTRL

Structure (SMILES) | EC50 [µM] | % Activity
CC(C)(C)c1cc(C(C)(C)C)c(NC(=O)c2c[nH]c3ccc(O)cc3c2=O)cc1O [Compound 702, 6-hydroxy-N-(5-hydroxy-2,4-ditert-butyl-phenyl)-4-oxo-1H-quinoline-3-carboxamide] | < 10 | ++ (between 25% to 100%)
O=C(Nc1cccnc1Oc1ccc(F)cc1)c1c[nH]c2ccccc2c1=O [Compound 147, N-[2-(4-fluorophenoxy)-3-pyridyl]-4-oxo-1H-quinoline-3-carboxamide] | < 10 | ++ (between 25% to 100%)
NC(=O)c1ccccc1NC(=O)c1c[nH]c2ccccc2c1=O [Compound 331, N-(2-carbamoylphenyl)-4-oxo-1H-quinoline-3-carboxamide] | 25 to 60 | + (<25%)
CC(C)(C)c1cc(C(C)(C)C)c(NC(=O)c2c[nH]c3c(Cl)cccc3c2=O)cc1O [Compound 663, 8-chloro-N-(5-hydroxy-2,4-ditert-butyl-phenyl)-4-oxo-1H-quinoline-3-carboxamide] | < 10 | ++ (between 25% to 100%)
O=C(Nc1ccc2ccn(Cc3ccccc3)c2c1)c1c[nH]c2ccccc2c1=O [Compound 203, N-(1-benzyl-1H-indol-6-yl)-4-oxo-1H-quinoline-3-carboxamide] | < 10 | ++ (between 25% to 100%)
Cc1csc(-c2ccccc2NC(=O)c2c[nH]c3ccccc3c2=O)c1 [Compound 151, N-[2-(4-methyl-2-thienyl)phenyl]-4-oxo-1H-quinoline-3-carboxamide] | < 10 | ++ (between 25% to 100%)
CC1(c2cc(F)c(NC(=O)c3c[nH]c4ccccc4c3=O)cc2O)CCCCC1 [Compound 92, N-[2-fluoro-5-hydroxy-4-(1-methylcyclohexyl)-phenyl]-4-oxo-1H-quinoline-3-carboxamide] | < 10 | ++ (between 25% to 100%)
O=C(Nc1ccccc1-c1cccc(Cl)c1)c1c[nH]c2ccccc2c1=O [Compound 307, N-[2-(3-chlorophenyl)phenyl]-4-oxo-1H-quinoline-3-carboxamide] | < 10 | ++ (between 25% to 100%)
CC1(c2cc(F)c(NC(=O)c3cnc4ccccc4c3O)cc2O)CCCCCC1 [Compound 483, N-[2-fluoro-5-hydroxy-4-(1-methylcycloheptyl)-phenyl]-4-hydroxy-quinoline-3-carboxamide] | < 10 | ++ (between 25% to 100%)
O=C(Nc1ccc(OC(F)(F)F)cc1Cl)c1c[nH]c2ccccc2c1=O [Compound 628, N-[2-chloro-4-(trifluoromethoxy)phenyl]-4-oxo-1H-quinoline-3-carboxamide] | < 10 | ++ (between 25% to 100%)
CC(C)(C)OC(=O)Nc1ccc(NC(=O)c2c[nH]c3ccccc3c2=O)c(C(F)(F)F)c1 [Compound 600, tert-butyl [[4-[(4-oxo-1H-quinolin-3-yl)carbonylamino]-3-(trifluoromethyl)phenyl]amino]formate] | < 10 | ++ (between 25% to 100%)
O=C(Nc1ccccc1-c1ccc(Cl)cc1Cl)c1c[nH]c2ccccc2c1=O [Compound 139, N-[2-(2,4-dichlorophenyl)phenyl]-4-oxo-1H-quinoline-3-carboxamide] | – | ++ (between 25% to 100%)
COc1ccccc1-c1ccccc1NC(=O)c1c[nH]c2ccccc2c1=O [Compound 355, N-[2-(2-methoxyphenyl)phenyl]-4-oxo-1H-quinoline-3-carboxamide] | < 10 | ++ (between 25% to 100%)
Cc1cccc2[nH]cc(C(=O)Nc3ccc(N4CCC[C@@H]4C)cc3C(F)(F)F)c(=O)c12 [Compound 511, (S)-5-methyl-N-(4-(2-methylpyrrolidin-1-yl)-2-(trifluoromethyl)phenyl)-4-oxo-1,4-dihydroquinoline-3-carboxamide] | < 10 | ++ (between 25% to 100%)
CC1(C)CCN(c2ccc(NC(=O)c3c[nH]c4ccccc4c3=O)c(C(F)(F)F)c2)C1 [Compound 536, N-[4-(3,3-dimethylpyrrolidin-1-yl)-2-(trifluoromethyl)phenyl]-4-oxo-1H-quinoline-3-carboxamide] | < 10 | ++ (between 25% to 100%)
CC1CCN(c2ccc(NC(=O)c3c[nH]c4ccccc4c3=O)c(C(F)(F)F)c2)C1 (stereo not drawn) [Compound 555, N-[4-(3-methylpyrrolidin-1-yl)-2-(trifluoromethyl)phenyl]-4-oxo-1H-quinoline-3-carboxamide] | < 10 | ++ (between 25% to 100%)

Structure (SMILES) | EC50 [µM] | % Activity
O=C(Nc1ccc2cc[nH]c2c1)c1cnc2ccc(Cl)cc2c1O [Compound 358, 6-chloro-4-hydroxy-N-(1H-indol-6-yl)quinoline-3-carboxamide] | < 10 | ++ (between 25% to 100%)
N#Cc1cc2ccc(NC(=O)c3c[nH]c4ccccc4c3=O)cc2[nH]1 [Compound 270, N-(2-cyano-1H-indol-6-yl)-4-oxo-1H-quinoline-3-carboxamide] | < 10 | ++ (between 25% to 100%)
CN(C)[C@H]1CCN(c2ccc(NC(=O)c3c[nH]c4ccccc4c3=O)c(C(F)(F)F)c2)C1 [Compound 513, (S)-N-(4-(3-(dimethylamino)pyrrolidin-1-yl)-2-(trifluoromethyl)phenyl)-4-oxo-1,4-dihydroquinoline-3-carboxamide] | < 10 | ++ (between 25% to 100%)
O=C(Nc1cccc2cccnc12)c1c[nH]c2ccccc2c1=O [Compound 241, 4-oxo-N-(8-quinolyl)-1H-quinoline-3-carboxamide] | 10 to 25 | ++ (between 25% to 100%)
O=C(Nc1cc(NS(=O)(=O)CCN2CCOCC2)cc(C(F)(F)F)c1)c1c[nH]c2ccccc2c1=O [Compound 272, N-[3-(2-morpholinoethylsulfonylamino)-5-(trifluoromethyl)phenyl]-4-oxo-1H-quinoline-3-carboxamide] | 10 to 25 | ++ (between 25% to 100%)
O=C(c1ccccc1)c1ccccc1NC(=O)c1c[nH]c2ccccc2c1=O [Compound 252, N-(2-benzoylphenyl)-4-oxo-1H-quinoline-3-carboxamide] | 10 to 25 | ++ (between 25% to 100%)
COc1cc(NC(=O)c2c[nH]c3ccccc3c2=O)c(C(F)(F)F)cc1C(C)(C)C [Compound 421, N-[5-methoxy-4-tert-butyl-2-(trifluoromethyl)phenyl]-4-oxo-1H-quinoline-3-carboxamide] | < 10 | ++ (between 25% to 100%)
CCC(CC)(c1cc(F)c(NC(=O)c2cnc3ccccc3c2O)cc1O)C(C)(C)C [Compound 153, N-[4-(1,1-diethyl-2,2-dimethyl-propyl)-2-fluoro-5-hydroxy-phenyl]-4-hydroxy-quinoline-3-carboxamide] | < 10 | ++ (between 25% to 100%)
CC(C)(C)c1cc(C(C)(C)C)c(NC(=O)c2c[nH]c3ccc(Br)cc3c2=O)cc1O [Compound 553, 6-bromo-N-(5-hydroxy-2,4-ditert-butyl-phenyl)-4-oxo-1H-quinoline-3-carboxamide] | < 10 | ++ (between 25% to 100%)
O=C(Nc1cccc2ncccc12)c1c[nH]c2ccccc2c1=O [Compound 191, 4-oxo-N-(5-quinolyl)-1H-quinoline-3-carboxamide] | 25 to 60 | + (<25%)
COc1ccc2[nH]cc(C(=O)Nc3cc(O)c(C(C)(C)C)cc3C(C)(C)C)c(=O)c2c1 [Compound 496, N-(5-hydroxy-2,4-ditert-butyl-phenyl)-6-methoxy-4-oxo-1H-quinoline-3-carboxamide] | < 10 | ++ (between 25% to 100%)
CCc1ccc2ncc(C(=O)Nc3ccc4cc[nH]c4c3)c(O)c2c1 [Compound 67, 6-ethyl-4-hydroxy-N-(1H-indol-6-yl)quinoline-3-carboxamide] | < 10 | ++ (between 25% to 100%)
CC1(c2cc(F)c(NC(=O)c3c[nH]c4cccc(O)c4c3=O)cc2O)CCCCC1 [Compound 287, N-[2-fluoro-5-hydroxy-4-(1-methylcyclohexyl)-phenyl]-5-hydroxy-4-oxo-1H-quinoline-3-carboxamide] | < 10 | ++ (between 25% to 100%)
CCOc1ccc(-c2ccccc2NC(=O)c2c[nH]c3ccccc3c2=O)cc1 [Compound 348, N-[2-(4-ethoxyphenyl)phenyl]-4-oxo-1H-quinoline-3-carboxamide] | < 10 | ++ (between 25% to 100%)
CC(C)(C)c1c[nH]c2cc(NC(=O)c3c[nH]c4cccc(O)c4c3=O)ccc12 [Compound 535, 5-hydroxy-4-oxo-N-(3-tert-butyl-1H-indol-6-yl)-1H-quinoline-3-carboxamide] | < 10 | ++ (between 25% to 100%)
CC(C)c1ccc(NC(=O)c2c[nH]c3cccc(O)c3c2=O)cc1O [Compound 587, 5-hydroxy-N-(3-hydroxy-4-isopropyl-phenyl)-4-oxo-1H-quinoline-3-carboxamide] | < 10 | ++ (between 25% to 100%)
